Here are results for three molecules from patent publication US20140051706A1 (PRISM PHARMA CO., LTD., priority 2011, published 2014).

This data set can be described thus: Plasma stability test. Conditions: human fresh plasma; read-out: ½t (plasma half-life). It counts as in vitro ADME. As for the experimental part: In the tables mentioned below, data indicated by “½t” means data of plasma half-life (minutes) is determined by plasma stability test that mentioned below.
Determination of Plasma half life was carried out according to the following procedure using the fresh plasma.
1. 0.025 mg/mL spiking solution A: add 10 μL of 0.5 mg/mL stock solution to 190 μL of DMSO. 2. Add 90 μL of plasma into the wells designated for all the time points (0, 5, 10, 30, 60, 90, 120, 240 min). 3. Add 10 μL of pre-warmed spiking solution A into the wells designated for all the time points (0, 5, 10, 30, 60, 90, 120, 240 min). Immediately, add 400 μL of ACN containing IS into the wells designated for 0 min, then start timing. 4. At 5, 10, 30, 60, 90, 120, 240 min, add 400 μL of ACN containing IS into the wells, respectively. 5. Protein is precipitated by centrifugation (4000 rpm, 15 min). 6. Transfer 50 μL of supernatant into 50 μL of ultra-pure water (Millipore) in a 96-well sample plate for LC-MS/MS analysis.

As to `CC(=O)Oc1ccc(C[C@H]2C(=O)N(Cc3cccc4cccnc34)[C@@H](C)C3N2C(=O)CN(C)N3C(=O)NCc2ccccc2)cc1` (stereo partly drawn) [Example I-1, 4-(((6S,9S)-1-(benzylcarbamoyl)-2,9-dimethyl-4,7-dioxo-8-(quinolin-8-ylmethyl)octahydro-1H-pyrazino[2,1-c][1,2,4]triazin-6-yl)methyl)phenyl acetate], the half-life – broadly, the time in which the quantity being followed falls by half – at 2.5 µg/mL is 0.733 h.

In the case of `CCCCC(=O)Oc1ccc(C[C@H]2C(=O)N(Cc3cccc4cccnc34)[C@@H](C)C3N2C(=O)CN(C)N3C(=O)NCc2ccccc2)cc1` (stereo partly drawn) [Example I-2, 4-(((6S,9S)-1-(benzylcarbamoyl)-2,9-dimethyl-4,7-dioxo-8-(quinolin-8-ylmethyl)octahydro-1H-pyrazino[2,1-c][1,2,4]triazin-6-yl)methyl)phenyl pentanoate], the half-life at 2.5 µg/mL amounted to 2.75 h.

With `CCCCCCCCC(=O)Oc1ccc(C[C@H]2C(=O)N(Cc3cccc4cccnc34)[C@@H](C)C3N2C(=O)CN(C)N3C(=O)NCc2ccccc2)cc1` (stereo partly drawn) [Example I-3, 4-(((6S,9S)-1-(benzylcarbamoyl)-2,9-dimethyl-4,7-dioxo-8-(quinolin-8-ylmethyl)octahydro-1H-pyrazino[2,1-c][1,2,4]triazin-6-yl)methyl)phenyl nonanoate], the half-life at 2.5 µg/mL was found to be 2.77 h.
